# Measured values published in patent US11945807B2, “Splicing modulator antibody-drug conjugates and methods of use” (EISAI R&D MANAGEMENT CO., LTD., priority 2018, dated 2024).
# Where two headings read alike, the source gives them in different places.
# Key:
# [1] = system: TAOK1 (neojunction transcript); assay: In vivo PD RT-qPCR in NCI-N87 tumors, TAOK1; set-up: species or system CB17-SCID mice; conditions: single IV 10 mg/kg; N=4; FIG. 24
# [2] = system: FBXW5 (mature mRNA transcript); assay: In vivo PD RT-qPCR in NCI-N87 tumors, FBXW5; set-up: species or system CB17-SCID mice; conditions: single IV 10 mg/kg; N=4; FIG. 24
# [3] = Caco-2 permeability of ADC payload; type: in vitro ADME; conditions: human, corresponding free payload
# [4] = system: NCIH1568.1; assay: Payload cellular potency CTGlo-ATS 72 h, NCIH1568.1; type: cell-based; conditions: cell line #2, 72 h, corresponding free payload
# [5] = system: NCIH1650.1; assay: Payload cellular potency CTGlo-ATS 72 h, NCIH1650.1; type: cell-based; conditions: cell line #1, 72 h, corresponding free payload
# [6] = system: Ad2.2 pre-mRNA; assay: In vitro splicing (IVS) RT-qPCR, HeLa nuclear extract, Ad2.2; type: biochemical
# Experimental: (§1) To evaluate payload activity in a cell-free system, an in vitro splicing assay was performed. The payloads were incubated with nuclear extracts and pre-mRNA substrate minigenes.
# (§2) HeLa nuclear extract preparation: HeLa S3 cell pellets were resuspended in hypotonic buffer (10 mM HEPES pH 7.9, 1.5 mM MgCl2, 10 mM KCl, 0.2 mM PMSF, 0.5 mM DTT) and the suspension was brought up to a total of 5 packed cell volume (PCV). After centrifugation, the supernatant was discarded, and the cells were brought up to 3 PCV with hypotonic buffer and incubated on ice for 10 min. Cells were lysed using a dounce homogenizer and then centrifuged. […]. The nuclei were gently mixed for 30 min before centrifuging. The supernatant (nuclear extract) was then dialyzed into storage buffer (20 mM HEPES pH 7.9, 100 mM KCl, 0.2 mM EDTA, 20% glycerol, 0.2 mM PMSF, 0.5 mM DTT). Protein concentration was determined using NanoDrop 8000 UV-Vis spectrophotometer (ThermoFisher Scientific).
# IVS: All Ad2-derived sequences (Pellizzoni et al. (1998) Cell 95(5):615-24) were cloned into pcDNA3.1(+) vector (Promega) using 5′ EcoRI and 3′ Xbal restriction sites. The plasmids were linearized using Xbal and used as DNA templates in in vitro transcription reactions. The FtzΔi intron-less plasmid (Luo and Reed (1999) 96(26):14937-42) was linearized using EcoRI. All RNAs were in vitro transcribed and then purified using MEGAScript T7 (Invitrogen) and MegaClear (Invitrogen) kits, respectively. For splicing reactions using Ad2 variant pre-mRNAs, 1 μL reactions were prepared using 8 μg nuclear extracts prepared from HeLa S3, 2 ng pre-mRNA, 0.2 ng FTZΔi, and varying concentrations of compounds or DMSO. After a 15 min pre-incubation at 30° C., 1 μL splicing activation buffer (0.5 mM ATP, 20 mM creatine phosphate, 1.6 mM MgCl2) was added, and the reactions were incubated for 90 min at 30° C. The reactions were then quenched with 13 μL DMSO, and 25 nL was used for RT-qPCR. RT-qPCR reactions were prepared using TaqMan RNA-to-CT 1-step kit (Life Technologies), RNA from splicing reactions, Ad2 (forward: […]; reverse: […]; probe: […]) and Ftz (forward: […]; reverse: […]; probe: […]) mRNA primer-probe sets. Prism 7 (Graphpad) was used for non-linear regression curve fitting of the formed spliced product and normalized to the control (DMSO) sample. […] In the presence of payload, a decrease in the amount of spliced product was observed.
# [7] = system: Ad2.1 pre-mRNA; assay: In vitro splicing (IVS) RT-qPCR, HeLa nuclear extract, Ad2.1; type: biochemical
# Experimental: as §1, §2
# IVS: All Ad2-derived sequences (Pellizzoni et al. (1998) Cell 95(5):615-24) were cloned into pcDNA3.1(+) vector (Promega) using 5′ EcoRI and 3′ Xbal restriction sites. The plasmids were linearized using Xbal and used as DNA templates in in vitro transcription reactions. The FtzΔi intron-less plasmid (Luo and Reed (1999) 96(26):14937-42) was linearized using EcoRI. All RNAs were in vitro transcribed and then purified using MEGAScript T7 (Invitrogen) and MegaClear (Invitrogen) kits, respectively. For splicing reactions using Ad2 variant pre-mRNAs, 1 μL reactions were prepared using 8 μg nuclear extracts prepared from HeLa S3, 2 ng pre-mRNA, 0.2 ng FTZΔi, and varying concentrations of compounds or DMSO. After a 15 min pre-incubation at 30° C., 1 μL splicing activation buffer (0.5 mM ATP, 20 mM creatine phosphate, 1.6 mM MgCl2) was added, and the reactions were incubated for 90 min at 30° C. The reactions were then quenched with 13 μL DMSO, and 25 nL was used for RT-qPCR. […]
# [8] = system: THP1.1; assay: Payload cell potency and lethality CTGlo 72 h, THP1.1; type: cell-based; conditions: cell line #3, 72 h, corresponding free payload
# [9] = system: Caco-2 cells; assay: Caco-2 permeability of ADC payload; type: in vitro ADME; conditions: unconjugated payload; apical to basolateral, 2 hours
# [10] = biochemical splicing assay, corresponding free payload, read-out: qPCR-IVS-ATS GMean IC50 (nM) Ad2.2 HELA.2
structure (smiles),measurement,setting,value
"CC[C@H](O)[C@@H](C)C1OC1C[C@@](C)(O)/C=C/C=C(\C)[C@H]1OC(=O)C[C@H](O)CC[C@@](C)(OC)[C@@H](OC(=O)N2CCN(CCN3C(=O)C=CC3=O)CC2)/C=C/[C@@H]1C (stereo in doubt) [ADL14-D1, (2S,3S,6S,7R,10R,E)-10-hydroxy-2-((R,2E,4E)-6-hydroxy-7-((2S,3S)-3-((2R,3S)-3-hydroxypentan-2-yl)oxiran-2-yl)-6-methylhepta-2,4-dien-2-yl)-7-methoxy-3,7-dimethyl-12-oxooxacyclododec-4-en-6-yl 4-(2-(2,5-dioxo-2,5-dihydro-1H-pyrrol-1-yl)ethyl)piperazine-1-carboxylate]",change of TAOK1 neojunction transcript in tumor,[1],did not exhibit statistically significant changes
same,change of FBXW5 mature mRNA transcript in tumor,[2],did not exhibit statistically significant changes
"CC[C@H](O)[C@@H](C)[C@H]1O[C@@H]1C[C@@](C)(O)/C=C/C=C(\C)[C@H]1OC(=O)C[C@H](O)CC[C@@](C)(O)[C@@H](OC(=O)N2CCNCC2)/C=C/[C@@H]1C [D12, (2S,3S,6S,7R,10R,E)-7,10-dihydroxy-2-((R,2E,4E)-6-hydroxy-7-((2R,3R)-3-((2R,3S)-3-hydroxypentan-2-yl)oxiran-2-yl)-6-methylhepta-2,4-dien-2-yl)-3,7-dimethyl-12-oxooxacyclododec-4-en-6-yl piperazine-1-carboxylate]","Papp A→B at 2 h, 10 NM","[3]; Caco-2, A-B, read-out: Perm. Mean Caco 2 A-B Perm (10e−6 cm/s)",0.17 ×10⁻⁶ cm/s
same,"Papp B→A at 2 h, 10 NM","[3]; Caco-2, B-A, read-out: Perm. Mean Caco 2 B-A Perm (10e−6 cm/s)",0.23 ×10⁻⁶ cm/s
same,"efflux ratio at 2 h, 10 NM","[3]; Caco-2 efflux ratio, read-out: ER",1.35
same,CTGlo-ATS GMean LD50 (nM) 72 h NCIH1568.1,[4],1193.037 nM
same,GI50,[4]; read-out: CTGlo-ATS GMean GI50 (nM) 72 h NCIH1568.1,164 nM
same,CTGlo-ATS GMean LD50 (nM) 72 h NCIH1650.1,[5],>10000.00 nM
same,GI50,[5]; read-out: CTGlo-ATS GMean GI50 (nM) 72 h NCIH1650.1,258 nM
same,IC50,[6]; [10],25.1 nM
same,IC50,"[7]; biochemical splicing assay, corresponding free payload, read-out: qPCR-IVS-ATS GMean IC50 (nM) Ad2.1 HELA.2",16.5 nM
same,Ratio Ad2.1/2.2,"[7]; ratio of IVS IC50 Ad2.1/Ad2.2, corresponding free payload",0.659
same,CTGlo-ATS GMean LD50 (nM) 72 h THP1.1,[8],900.227 nM
same,GI50,[8]; read-out: CTGlo-ATS GMean GI50 (nM) 72 h THP1.1,202 nM
"CC(=O)N1CCC(n2nnc3c(F)cc(/C=C(\C)[C@H]4OC(=O)C[C@H](O)CC[C@H](C)[C@@H](OC(=O)N5CC[N+](C)(Cc6ccc(NC(=O)[C@H](C)NC(=O)[C@@H](NC(=O)CCCCCN7C(=O)C=CC7=O)C(C)C)cc6)CC5)/C=C/[C@@H]4C)cc32)CC1 [ADL5-D15, 4-((((2S,3S,6R,7S,10R,E)-2-((E)-1-(1-(1-acetylpiperidin-4-yl)-4-fluoro-1H-benzo[d][1,2,3]triazol-6-yl)prop-1-en-2-yl)-10-hydroxy-3,7-dimethyl-12-oxooxacyclododec-4-en-6-yl)oxy)carbonyl)-1-(4-((S)-2-((S)-2-(6-(2,5-dioxo-2,5-dihydro-1H-pyrrol-1-yl)hexanamido)-3-methylbutanamido)propanamido)benzyl)-1-methylpiperazin-1-ium]",change of TAOK1 neojunction transcript in tumor,[1],"an increase in TAOK1, but did not reach statistical significance"
same,change of FBXW5 mature mRNA transcript in tumor,[2],significant depletion
"CC[C@H](O)[C@@H](C)[C@H]1O[C@@H]1C[C@@](C)(O)/C=C/C=C(\C)[C@H]1OC(=O)C[C@H](O)CC[C@@](C)(OC(C)=O)[C@@H](OC(=O)N2C[C@@H]3C[C@H]2CN3)/C=C/[C@@H]1C [D5, (2S,3S,6S,7R,10R,E)-7-acetoxy-10-hydroxy-2-((R,2E,4E)-6-hydroxy-7-((2R,3R)-3-((2R,3S)-3-hydroxypentan-2-yl)oxiran-2-yl)-6-methylhepta-2,4-dien-2-yl)-3,7-dimethyl-12-oxooxacyclododec-4-en-6-yl (1S,4S)-2,5-diazabicyclo[2.2.1]heptane-2-carboxylate]",IC50,[6]; [10],23.9 nM
CC[C@H](O)[C@@H](C)[C@H]1O[C@@H]1C[C@@](C)(O)/C=C/C=C(\C)[C@H]1OC(=O)C[C@H](O)CC[C@@](C)(OC(C)=O)[C@@H](OC(=O)N2CCN(C(=O)OCc3ccc(NC(=O)[C@H](CCCNC(N)=O)NC(=O)[C@@H](NC(=O)CCCCCN4C(=O)C=CC4=O)C(C)C)cc3)CC2)/C=C/[C@@H]1C [ADL1-D4],change of TAOK1 neojunction transcript in tumor,[1],significant increases
same,change of FBXW5 mature mRNA transcript in tumor,[2],significant depletion
"CC[C@H](O)[C@@H](C)[C@H]1O[C@@H]1C[C@@](C)(O)/C=C/C=C(\C)[C@H]1OC(=O)C[C@H](O)CC[C@@](C)(OC(C)=O)[C@@H](OC(=O)N2CCN(CCN)CC2)/C=C/[C@@H]1C [D3, (2S,3S,6S,7R,10R,E)-7-acetoxy-10-hydroxy-2-((R,2E,4E)-6-hydroxy-7-((2R,3R)-3-((2R,3S)-3-hydroxypentan-2-yl)oxiran-2-yl)-6-methylhepta-2,4-dien-2-yl)-3,7-dimethyl-12-oxooxacyclododec-4-en-6-yl 4-(2-aminoethyl)piperazine-1-carboxylate]",IC50,[6]; [10],10.9 nM
"COc1cc2cc(c1Cl)N(C)C(=O)C[C@H](OC(=O)[C@H](C)N(C)C(=O)CCS)[C@]1(C)O[C@H]1[C@H](C)[C@@H]1C[C@@](O)(NC(=O)O1)[C@H](OC)/C=C/C=C(\C)C2 [DM1, reference compound]",Permeability Mean Caco-2 A-B Perm (10e−6 cm/s),[9],0.38 10e−6 cm/s
same,IC50,"[6]; unconjugated payload, HeLa nuclear extract, read-out: qPCR-IVS-AT S GMean IC50 (nM) Ad2.2 HELA.2",< 25000 nM
same,IC50,"[7]; unconjugated payload, HeLa nuclear extract, read-out: qPCR-IVS-AT S Gmean IC50 (nm) Ad2.1 HELA.2",> 25000 nM
